# Data from US5116974A, “3-carbalkoxyamino-5-aminoacyl-5H-dibenz[b,f]azepines, and methods for making” (Arzneimittelwerk Dresden GmbH, priority 1989, dated 1992).
# What was measured:
# in vivo = details: rat, iv, male or female Wistar rats, i.v. tail vein, Probit regression, confidence interval p=0.05 in parentheses, read-out: LD50 i.v. (acute tox., rat)
# Excerpt: LD50 i.v. =lethal dose in mg/kg for 50% of the experimental animals of an orientating acute toxicity test on male or female Wistar rats of our own breed, i.v. administration in the tail vein, 3-4 dosages, 10 animals per group. Data analyzed by the Probit regression analysis with a confidence interval of p=0.05 (values given in parentheses).
# [1] = test system: aconitine arrhythmia in female Wistar rats; type: in vivo, rat (female Wistar); details: for ED73 i.v. (aconitine, rat): dose which inhibits aconitine arrhythmia up to the occurrence of isolated ventricular extrasystoles: female Wistar rats, Probit regression, confidence interval p=0.05 in parentheses; for Q = LD50 i.v./ED73 i.v. (therapeutic breadth): rat, ratio of LD50 to ED73 (aconitine model)
# Procedure: ED73 i.v. =the dose in mg/kg, which inhibits aconitine arrhythmia in female Wistar rats after i.v. administration of the test substance up to the occurrence of isolated ventricular extrasystolea (K. Femmer et al., Pharmazie 31, page 36 (1976). The data is analyzed by the Probit regression analysis with a confidence interval of p=0.05 (values given in parentheses).
# Solubility = type: physicochemical
# [2] = test system: dogs, 24 hours after a 2-step coronary ligature; assay: 2-step coronary ligature in dogs (Harris model); type: in vivo, dog
# Excerpt: It is also emphasized that, in comparative investigations of the 2-step coronary ligature in dogs (Harris model), the new compounds of formula I have an advantageously sustained duration of action (see Table 1).
smiles,measurement,setting,value
CCOC(=O)Nc1ccc2c(c1)N(C(=O)CNC)c1ccccc1C=C2 [No. 19],LD50,in vivo,11 mg/kg
same,"ED73 i.v. (aconitine, rat): dose which inhibits aconitine arrhythmia up to the occurrence of isolated ventricular extrasystoles",[1],0.32 mg/kg
same,Q = LD50 i.v./ED73 i.v. (therapeutic breadth),[1],34
CNCC(=O)N1c2ccccc2CCc2ccc(NC(=O)OC(C)C)cc21 [No. 11],LD50,in vivo,15 mg/kg
same,"ED73 i.v. (aconitine, rat): dose which inhibits aconitine arrhythmia up to the occurrence of isolated ventricular extrasystoles",[1],0.61 mg/kg
same,Q = LD50 i.v./ED73 i.v. (therapeutic breadth),[1],25
"CCOC(=O)Nc1ccc2c(c1)N(C(=O)CNCc1ccccc1)c1ccccc1CC2 [No. 1, 3-carbethoxyamino-b 5-benzylaminoacetyl-10,11-dihydro-5H-dibenz[b,f]azepine]",LD50,in vivo,13 mg/kg
same,"ED73 i.v. (aconitine, rat): dose which inhibits aconitine arrhythmia up to the occurrence of isolated ventricular extrasystoles",[1],0.79 (0.53-1.2) mg/kg
same,Q = LD50 i.v./ED73 i.v. (therapeutic breadth),[1],16
same,solubility of the base in dilute acids (in words),Solubility,not very soluble in dilute acids
"CCCCNCC(=O)N1c2ccccc2CCc2ccc(NC(=O)OCC)cc21 [No. 7, 3-carbethoxyamino-5-n-butylamino-acetyl-10,11-dihydro-5H-dibenz[b,f]azepin]",LD50,in vivo,5 mg/kg
same,"ED73 i.v. (aconitine, rat): dose which inhibits aconitine arrhythmia up to the occurrence of isolated ventricular extrasystoles",[1],0.29 mg/kg
same,Q = LD50 i.v./ED73 i.v. (therapeutic breadth),[1],17
"CCOC(=O)Nc1ccc2c(c1)N(C(=O)CNC(C)(C)C)c1ccccc1CC2 [No. 6, 3-carbethoxyamino-5-tertiary-butylamino-acetyl-10,11-dihydro-5H-dibenz[b,f]azepine]",LD50,in vivo,5.6 mg/kg
same,"ED73 i.v. (aconitine, rat): dose which inhibits aconitine arrhythmia up to the occurrence of isolated ventricular extrasystoles",[1],0.35 mg/kg
same,Q = LD50 i.v./ED73 i.v. (therapeutic breadth),[1],16
CCNCC(=O)N1c2ccccc2CCc2ccc(NC(=O)OCC)cc21 [No. 3],LD50,in vivo,9.6 mg/kg
same,"ED73 i.v. (aconitine, rat): dose which inhibits aconitine arrhythmia up to the occurrence of isolated ventricular extrasystoles",[1],0.09 mg/kg
same,Q = LD50 i.v./ED73 i.v. (therapeutic breadth),[1],107
same,"duration of action (dog, Harris)",[2]; at eff. dose 1.0 mg/kg i.v.,60 min
same,"duration of action (dog, Harris)",[2]; at eff. dose 2.0 mg/kg i.v.,180 min
"CCNCC(=O)N1c2ccccc2C=Cc2ccc(NC(=O)OCC)cc21 [No. 20, 3-carbethoxyamino-5-ethylamino-acetyl-acetyl-5H-dibenz[b,f]azepine]",LD50,in vivo,6.2 mg/kg
same,"ED73 i.v. (aconitine, rat): dose which inhibits aconitine arrhythmia up to the occurrence of isolated ventricular extrasystoles",[1],0.40 mg/kg
same,Q = LD50 i.v./ED73 i.v. (therapeutic breadth),[1],15
"CCOC(=O)Nc1ccc2c(c1)N(C(=O)CNC(C)C)c1ccccc1CC2 [No. 4, 3-carbethoxyamino-5-isopropylamino-acetyl-10,11-dihydro-5H-dibenz[b,f]azepine]",LD50,in vivo,8.2 mg/kg
same,"ED73 i.v. (aconitine, rat): dose which inhibits aconitine arrhythmia up to the occurrence of isolated ventricular extrasystoles",[1],0.71 mg/kg
same,Q = LD50 i.v./ED73 i.v. (therapeutic breadth),[1],12
COC(=O)Nc1ccc2c(c1)N(C(=O)CNCCO)c1ccccc1CC2 [No. 16],LD50,in vivo,36 mg/kg
same,"ED73 i.v. (aconitine, rat): dose which inhibits aconitine arrhythmia up to the occurrence of isolated ventricular extrasystoles",[1],0.40 mg/kg
same,Q = LD50 i.v./ED73 i.v. (therapeutic breadth),[1],90
CC(C)OC(=O)Nc1ccc2c(c1)N(C(=O)CNC(C)(C)C)c1ccccc1CC2 [No. 14],"ED73 i.v. (aconitine, rat): dose which inhibits aconitine arrhythmia up to the occurrence of isolated ventricular extrasystoles",[1],0.18 mg/kg
CNCC(=O)N1c2ccccc2CCc2ccc(NC(=O)OC)cc21 [No. 15],LD50,in vivo,20 mg/kg
same,"ED73 i.v. (aconitine, rat): dose which inhibits aconitine arrhythmia up to the occurrence of isolated ventricular extrasystoles",[1],0.30 mg/kg
same,Q = LD50 i.v./ED73 i.v. (therapeutic breadth),[1],67
same,"duration of action (dog, Harris)",[2]; at eff. dose 2.0 mg/kg i.v.,15 min
"Cc1cccc(C)c1OCC(C)N (stereo not shown) [Mexiletin, mexiletin, reference compound]",LD50,in vivo,41 mg/kg
same,"ED73 i.v. (aconitine, rat): dose which inhibits aconitine arrhythmia up to the occurrence of isolated ventricular extrasystoles",[1],15 mg/kg
CC(C)OC(=O)Nc1ccc2c(c1)N(C(=O)CNCCO)c1ccccc1CC2 [No. 12],LD50,in vivo,20 mg/kg
same,"ED73 i.v. (aconitine, rat): dose which inhibits aconitine arrhythmia up to the occurrence of isolated ventricular extrasystoles",[1],0.51 mg/kg
same,Q = LD50 i.v./ED73 i.v. (therapeutic breadth),[1],39
"CCOC(=O)Nc1ccc2c(c1)N(C(=O)CNC1CCCCC1)c1ccccc1CC2 [No. 8, 3-carbethoxyamino-5-cyclohexylamino-acetyl-10,11-dihydro-5H-dibenz[b,f]azepine]",LD50,in vivo,3.7 mg/kg
same,"ED73 i.v. (aconitine, rat): dose which inhibits aconitine arrhythmia up to the occurrence of isolated ventricular extrasystoles",[1],0.25 mg/kg
same,Q = LD50 i.v./ED73 i.v. (therapeutic breadth),[1],15
"CCN(CC)CC(=O)Nc1c(C)cccc1C [Lidocaine, lidocaine, reference compound]","duration of action (dog, Harris)",[2]; at eff. dose 6.0 mg/kg i.v.,10 min
"CCNCC(=O)N1c2ccccc2CCc2ccc(NC(=O)OC(C)C)cc21 [No. 13, 3-carbisopropoxyamino-5-ethylamino-acetyl-10,11-dihydro-5H-dibenz[b,f]azepine]",LD50,in vivo,16 mg/kg
same,"ED73 i.v. (aconitine, rat): dose which inhibits aconitine arrhythmia up to the occurrence of isolated ventricular extrasystoles",[1],0.47 mg/kg
same,Q = LD50 i.v./ED73 i.v. (therapeutic breadth),[1],34
CCCCCCNCC(=O)N1c2ccccc2CCc2ccc(NC(=O)OCC)cc21 [No. 9],LD50,in vivo,14 mg/kg
same,"ED73 i.v. (aconitine, rat): dose which inhibits aconitine arrhythmia up to the occurrence of isolated ventricular extrasystoles",[1],0.90 mg/kg
same,Q = LD50 i.v./ED73 i.v. (therapeutic breadth),[1],16
"CCOC(=O)Nc1ccc2c(c1)N(C(=O)CNCCO)c1ccccc1CC2 [No. 2, 3-carbethoxyamino-5-(beta-oxyethylamino)acetyl-10,11-dihydro-5H-dibenz[b,f]azepine]",LD50,in vivo,12 mg/kg
same,"ED73 i.v. (aconitine, rat): dose which inhibits aconitine arrhythmia up to the occurrence of isolated ventricular extrasystoles",[1],0.19 mg/kg
same,Q = LD50 i.v./ED73 i.v. (therapeutic breadth),[1],63
same,"duration of action (dog, Harris)",[2]; at eff. dose 2.0 mg/kg i.v.,60 min
"CCOC(=O)Nc1ccc2c(c1)N(C(=O)CN(C)C)c1ccccc1CC2 [Bonnecor ®, 3-carbethoxyamino-5-dimethylaminoacetyl-10,11-dihydro-5H-dibenz[b,f]azepine, reference compound]",LD50,in vivo,11 mg/kg
same,"ED73 i.v. (aconitine, rat): dose which inhibits aconitine arrhythmia up to the occurrence of isolated ventricular extrasystoles",[1],0.28 mg/kg
same,Q = LD50 i.v./ED73 i.v. (therapeutic breadth),[1],39
same,"duration of action (dog, Harris)",[2]; at eff. dose 2.0 mg/kg i.v.,15 min
"CCNCCC(=O)N1c2ccccc2CCc2ccc(NC(=O)OCC)cc21 [No. 21, 3-carbethoxyamino-5-(β-ethylaminopropionyl)-10,11-dihydro-5H-dibenz[b,f]azepine]",LD50,in vivo,12 mg/kg
same,"ED73 i.v. (aconitine, rat): dose which inhibits aconitine arrhythmia up to the occurrence of isolated ventricular extrasystoles",[1],0.42 mg/kg
same,Q = LD50 i.v./ED73 i.v. (therapeutic breadth),[1],29
CCNCC(=O)N1c2ccccc2CCc2ccc(NC(=O)OC)cc21 [No. 17],LD50,in vivo,19 mg/kg
same,"ED73 i.v. (aconitine, rat): dose which inhibits aconitine arrhythmia up to the occurrence of isolated ventricular extrasystoles",[1],0.95 mg/kg
same,Q = LD50 i.v./ED73 i.v. (therapeutic breadth),[1],20
same,"duration of action (dog, Harris)",[2]; at eff. dose 2.0 mg/kg i.v.,15 min
"CCOC(=O)Nc1ccc2c(c1)N(C(=O)CCN1CCOCC1)c1ccccc1S2 [Morazicine, morazicine, reference compound]",LD50,in vivo,11 mg/kg
same,"ED73 i.v. (aconitine, rat): dose which inhibits aconitine arrhythmia up to the occurrence of isolated ventricular extrasystoles",[1],1.1 mg/kg
same,Q = LD50 i.v./ED73 i.v. (therapeutic breadth),[1],10
same,"duration of action (dog, Harris)",[2]; at eff. dose 2.0 mg/kg i.v.,15 min
"CCOC(=O)Nc1ccc2c(c1)N(C(=O)CNC(C)c1ccccc1)c1ccccc1CC2 (stereo not drawn) [No. 22, 3-carbethoxyamino-5-(α-phenylethylamino)-acetyl-10,11-dihydro-5H-dibenz[b,f]azepine]",LD50,in vivo,31 mg/kg
same,"ED73 i.v. (aconitine, rat): dose which inhibits aconitine arrhythmia up to the occurrence of isolated ventricular extrasystoles",[1],3.5 mg/kg
same,Q = LD50 i.v./ED73 i.v. (therapeutic breadth),[1],9
"CCOC(=O)Nc1ccc2c(c1)N(C(=O)CN)c1ccccc1CC2 [No. 10, 3-carbethoxyamino-5-amino-acetyl-10,11-dihydro-5H-dibenz[b,f]azepine]",LD50,in vivo,14 mg/kg
same,"ED73 i.v. (aconitine, rat): dose which inhibits aconitine arrhythmia up to the occurrence of isolated ventricular extrasystoles",[1],0.20 mg/kg
same,Q = LD50 i.v./ED73 i.v. (therapeutic breadth),[1],70
CCOC(=O)Nc1ccc2c(c1)N(C(=O)CCNCCO)c1ccccc1CC2 [No. 18],LD50,in vivo,20 mg/kg
same,"ED73 i.v. (aconitine, rat): dose which inhibits aconitine arrhythmia up to the occurrence of isolated ventricular extrasystoles",[1],0.85 mg/kg
same,Q = LD50 i.v./ED73 i.v. (therapeutic breadth),[1],24
same,"duration of action (dog, Harris)",[2]; at eff. dose 2.0 mg/kg i.v.,60 min
"CCCNCC(=O)N1c2ccccc2CCc2ccc(NC(=O)OCC)cc21 [No. 5, 3-carbethoxyamino-5-n-propylamino-acetyl-10,11-dihydro-5H-dibenz[b,f]azepine]",LD50,in vivo,6.1 mg/kg
same,"ED73 i.v. (aconitine, rat): dose which inhibits aconitine arrhythmia up to the occurrence of isolated ventricular extrasystoles",[1],0.18 mg/kg
same,Q = LD50 i.v./ED73 i.v. (therapeutic breadth),[1],34
